{"source": "patent US20070154464A1", "about": "“Methods for screening for agents capable of modulating t lymphocyte function in response to a herpes simplex virus-infected cell” (priority 2003, published 2007)", "molecules": {"B1": {"name": "IL-7: human recombinant IL-7 (RnDSystems) (protein, UniProt P13232 26-177, looked up)", "Interleukin-7": "DCDIEGKDGKQYESVLMVSIDQLLDSMKEIGSNCLNNEFNFFKRHICDANKEGMFLFRAARKLRQFLKMNSTGDFDLHLLKVSEGTTILLNCTGQVKGRKPAALGEAQPTKSLEENKSLKEQKKLNDLCFLKRLLQEIKTCWNKILMGTKEH"}}, "key": {"HSV-2": {"tested_on": "HSV-2", "assay": "Quantitative real-time PCR (TaqMan) of HSV levels in fibroblasts and CTL", "format": "cell-based", "procedure": "Quantitative Real-Time PCR Using TaqMan® Chemistry: CTL were incubated with uninfected or HSV-infected fibroblasts for 4 h, removed by aspiration, and incubated for 5 h at 37° C. In the acyclovir group, fibroblasts were treated with 50 μM acyclovir for 2 h prior to infecting with HSV for 6 h. Removed CTL were then incubated with CD8-conjugated Dynabeads® (Dynal A.S., Oslo, Norway) for 30 m rocking at 4° C. and washed as directed by the manufacturer. DNA was purified from uninfected fibroblasts, HSV-infected fibroblasts, and CD8 enriched CTL using DNeasy® Tissue Kits (Qiagen, Valencia, Calif.). DNA was quantified by spectrophotometry and used as template in TaqMan® real-time PCR reactions with primers and fluorogenic probes specific for the HSV glycoprotein B gene or the cellular beta-globin gene. Reactions were carried out using an ABI 7700 Sequencer (Applied Biosystems, Foster City, Calif.), and the sequences and concentrations of the primers and probes used were as previously described (Liu et al., J. Virol. 75:11178, 2001).\nThe most sensitive technique available to detect the presence of HSV is real-time, quantitative PCR. Primers and probes against a viral gene (gB) and a cellular gene (beta globin) were used to determine the number of HSV copies per cell in HSV-infected fibroblasts and in inactivated CTL. […]"}, "CD8+ CTL clone SKH-13": {"tested_on": "CD8+ CTL clone SKH-13", "format": "cell-based, human"}, "HSV-inactivated T cells": {"tested_on": "HSV-inactivated T cells", "format": "cell-based, human"}, "CTL [1]": {"tested_on": "CTL", "assay": "Redirected cell lysis of 51Cr-labeled FcγR+ P815 target cells by anti-CD3-labeled CTL", "format": "cell-based, human", "details": "antibody 1 μg/ml for 15 m; control vs inactivated CTL; 5 h"}, "T cells": {"tested_on": "T cells", "format": "cell-based, human"}, "CTL [2]": {"tested_on": "CTL", "assay": "Mitochondrial potential of CTL by MitoTracker Red CMXRos flow cytometry", "format": "cell-based, human", "details": "1 μM, 4 h, CTL without fibroblasts", "procedure": "Mitochondrial potential was assessed in untreated CTL, CTL treated with 1 μM staurosporine (Sigma, St. Louis, Mo.) for 4 h, CTL incubated with uninfected fibroblasts (control) for 4 h, and CTL incubated with HSV-infected fibroblasts (inactivated) for 4 h. CTL were then stained using MitoTracker® Red CMXRos as per the manufacturer's instructions (Molecular Probes, Inc., Eugene, Oreg.). Control and inactivated CTL were also stained with antibody against CD95/Fas (clone DX2, Dako, Carpinteria, Calif.) and with the DNA-binding dye 7-amino-actinomycin D (7-AAD, Sigma, St. Louis, Mo.) and analyzed by flow cytometry."}}, "note": "Read-outs that look alike come from different tables or passages of the source."}
{"molecule": "Nc1nc2c(ncn2COCCO)c(=O)[nH]1", "note": "[acyclovir]", "values": [{"measurement": "# HSV Copies/cell", "setting": "HSV-2; CTL incubated 4 h on HSV-2-infected fibroblasts treated with 50 μM acyclovir, CD8-bead enriched", "value": 0.16, "unit": "Copies/cell"}, {"measurement": "HSV copies detected per CTL", "setting": "HSV-2; fibroblasts treated with 50 μM acyclovir prior to infection, inactivated CTL", "value": "1 copy of HSV was detected per 6 CTL"}]}
{"molecule": "C[C@@H]1C[C@@H]([C@H](O)CC2CC(=O)NC(=O)C2)C(=O)[C@@H](C)C1", "note": "[CHX, cyclohexamide]", "values": [{"measurement": "Effect on HSV-mediated inactivation of CTL", "setting": "CD8+ CTL clone SKH-13; CTL (5 h prior) or targets exposed to 10 μg/ml", "value": "no effect on HSV-mediated inactivation"}, {"measurement": "Effect on HSV-mediated inactivation of CTL", "setting": "CD8+ CTL clone SKH-13; fibroblasts treated with 10 μg/ml for 10 h prior to infection", "value": "abolished HSV-mediated inactivation"}]}
{"molecule": "IL-15: human recombinant IL-15 (Peprotech)", "values": [{"measurement": "Restoration of lytic function to HSV-inactivated T cells", "setting": "HSV-inactivated T cells", "value": "not to restore lytic function"}]}
{"molecule": "OKT3: monoclonal antibody raised against CD3 (clone OKT3, Ortho-McNeil)", "values": [{"measurement": "Lytic granule release via redirected lysis", "setting": "CTL [1]", "value": "Control but not inactivated CTL were capable of lytic granule release"}, {"measurement": "TNF-α and IFN-γ synthesis by inactivated T cells", "setting": "T cells", "value": "failed to synthesize TNF-α and IFN-γ"}]}
{"molecule": "CN[C@@H]1C[C@H]2O[C@@](C)([C@@H]1OC)n1c3ccccc3c3c4c(c5c6ccccc6n2c5c31)C(=O)NC4", "note": "[staurosporine]", "values": [{"measurement": "CMXRos signal (mitochondrial membrane potential) in CTL", "setting": "CTL [2]", "value": "significant decrease in the CMXRos signal"}]}
{"molecule": "C/C=C/[C@H]1O[C@@](O)([C@@H](C)[C@H](O)[C@H](C)[C@H]2OC(=O)/C(OC)=C/C(C)=C/[C@@H](C)[C@@H](O)[C@@H](CC)[C@@H](O)[C@H](C)C/C(C)=C/C=C/[C@@H]2OC)C[C@@H](O)[C@@H]1C", "note": "[concanamycin]", "values": [{"measurement": "51Cr release from target cells by SKH-13 CTL clone", "setting": "CD8+ CTL clone SKH-13", "value": "prevented ^51Cr release from target cells"}]}
{"molecule": "B1", "values": [{"measurement": "Restoration of lytic function to HSV-inactivated T cells", "setting": "HSV-inactivated T cells", "value": "not to restore lytic function"}]}
